The values below come from US10071981B2, “Method of priming plants against abiotic stress factors” (Research Foundation of The City University of New York, priority 2014, dated 2018).

The subject of this experiment is Medicago truncatula plants. The experiment can be described thus: Hydrogen peroxide content in leaves of drought-stressed plants. Type of experiment: in vivo. The following applies: 100 μM foliar spraying. As to the method: Mature (40 d) Medicago truncatula ecotype Jemalong A17 plants were used for the purposes of this study. These were grown in soil medium under controlled, optimal growth conditions and were then subjected to drought stress. Drought was imposed by withholding watering for 9 d (for detailed growth and stress conditions see Filippou et al., 2011). Both NOSH and NOSH-aspirin were applied at 100 μM concentration by foliar spraying at the start of stress imposition. The hybrid donors were diluted in 70% (v/v) and 30% (v/v) methanol, 20% (v/v) acetone or 20% (v/v) DMSO. Cellular damage was evaluated by lipid peroxidation levels (TBARS content) and hydrogen peroxide (H2O2) content as previously described (Filippou et al., 2011; Tanou et al., 2012), while osmoprotective capacity was evaluated by proline content (ninhydrin assay) as previously described (Antoniou et al., 2013). Real-time RT-PCR gene expression analysis was carried out using a Biorad IQ5 thermocycler as previously described (Filippou et al., 2013b). Relative quantification of gene expression and statistical analysis of all qRT-PCR data (pairwise fixed reallocation randomization test) were performed using the REST software according to Pfaffl et al. (2002). The actin 11 gene was used as a housekeeping reference gene. […]

`O=C(CCCO[N+](=O)[O-])Oc1ccccc1C(=O)Oc1ccc(-c2cc(=S)ss2)cc1` [NOSH-A]: the H2O2 levels entry (30% (v/v) MetOH, vs drought-stress samples, FIG. 5) is “significantly lower H2O2 levels”. Further, for the setting “70% (v/v) MetOH, drought 9 d, FIG. 4”, the H2O2 content entry is listed as “significantly reversed”.
